{"source": "patent US10105373B2", "about": "“Fused triterpene compounds and uses thereof” (PIRAMAL ENTERPRISES LIMITED, priority 2014, dated 2018)", "data": [{"target": "T1, RORγt receptor protein (Homo sapiens, UniProt P51449)", "T1 sequence (P51449 1-497 isoform P51449-2)": "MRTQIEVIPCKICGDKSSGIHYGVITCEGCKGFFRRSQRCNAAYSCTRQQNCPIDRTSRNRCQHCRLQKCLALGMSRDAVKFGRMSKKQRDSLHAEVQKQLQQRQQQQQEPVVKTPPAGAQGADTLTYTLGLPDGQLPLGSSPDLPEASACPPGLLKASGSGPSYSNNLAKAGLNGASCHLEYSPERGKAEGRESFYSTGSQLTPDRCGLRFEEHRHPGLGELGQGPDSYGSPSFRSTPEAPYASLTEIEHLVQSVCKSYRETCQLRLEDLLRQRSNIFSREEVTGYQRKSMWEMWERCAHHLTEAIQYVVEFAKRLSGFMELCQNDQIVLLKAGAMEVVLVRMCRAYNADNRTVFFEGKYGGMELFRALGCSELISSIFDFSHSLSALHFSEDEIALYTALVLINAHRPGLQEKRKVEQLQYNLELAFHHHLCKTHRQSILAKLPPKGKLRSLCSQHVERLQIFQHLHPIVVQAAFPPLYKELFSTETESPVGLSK", "assay": "General RORγ binding assay (radioligand binding, [3H]25-hydroxy cholesterol displacement)", "conditions": "displacement of [3H]25-hydroxy cholesterol from 200 ng RORγt receptor protein, 1 h room temperature; test concentrations 0.01-3 μM, concentration for the % not stated", "description": "General RORγ Binding Assay:\nThe RORγ binding of compounds of the present invention as described herein to RORγ was measured. For the radioligand binding assay, various concentrations of the test compounds were prepared (0.01 μM, 0.03 μM, 0.1 μM, 0.3 μM, 1 μM and 3 μM) and the samples were incubated with 200 ng of RORγt receptor protein in the presence of the [^3H]25-hydroxy cholesterol and the mixture was incubated at room temperature for 1 h. An extent of displacement of the radioligand was measured after harvesting the reaction mixture on filter plate reader using TopCount (Perkin Elmer) for radioactivity. The compounds of present invention were tested for RORγ binding using the above assay procedure and the results obtained are given in the below Table 1.", "values": [{"smiles": "C[C@H]1[C@H](C)CC[C@]2(C(=O)O)CC[C@]3(C)C(=CC[C@@H]4[C@@]5(C)Cc6cncnc6C(C)(C)[C@@H]5CC[C@]43C)[C@H]12", "note": "[Example 6, (1S,2R,4aS,6aS,6bR,8aR,14aR,14bR,16bS)-1,2,6a,6b,9,9,14a-heptamethyl-1,2,3,4,4a,5,6,6a,6b,7,8,8a,9,14,14a,14b,15,16b-octadecahydrochryseno[1,2-g]quinazoline-4a-carboxylic acid]", "ROR binding (%)": "+++ (‘+++’ corresponds to more than 80% binding of the compounds of present invention)"}, {"smiles": "C[C@H]1[C@H](C)CC[C@]2(C(=O)O)CC[C@]3(C)C(=CC[C@@H]4[C@@]5(C)Cc6c(N7CCOCC7)ncnc6C(C)(C)[C@@H]5CC[C@]43C)[C@H]12", "note": "[Example 14, (1S,2R,4aS,6aS,6bR,8aR,14aR,14bR,16bS)-1,2,6a,6b,9,9,14a-heptamethyl-13-morpholino-1,2,3,4,4a,5,6,6a,6b,7,8,8a,9,14,14a,14b,15,16b-octadecahydrochryseno[1,2-g]quinazoline-4a-carboxylic acid]", "ROR binding (%)": "++ (‘++’ corresponds to 50 to 70% binding of the compounds of present invention)"}, {"smiles": "COc1ncnc2c1C[C@]1(C)[C@H]3CC=C4[C@@H]5[C@@H](C)[C@H](C)CC[C@]5(C(=O)O)CC[C@@]4(C)[C@]3(C)CC[C@H]1C2(C)C", "note": "[Example 23, (1S,2R,4aS,6aS,6bR,8aR,14aR,14bR,16bS)-13-methoxy-1,2,6a,6b,9,9,14a-heptamethyl-1,2,3,4,4a,5,6,6a,6b,7,8,8a,9,14,14a,14b,15,16b-octadecahydrochryseno[1,2-g]quinazoline-4a-carboxylic acid]", "ROR binding (%)": "++ (‘++’ corresponds to 50 to 70% binding of the compounds of present invention)"}, {"smiles": "C[C@H]1[C@H](C)CC[C@]2(C(=O)O)CC[C@]3(C)C(=CC[C@@H]4[C@@]5(C)Cc6c(N(C)C)ncnc6C(C)(C)[C@@H]5CC[C@]43C)[C@H]12", "note": "[Example 27, (1S,2R,4aS,6aS,6bR,8aR,14aR,14bR,16bS)-13-(dimethylamino)-1,2,6a,6b,9,9,14a-hepta methyl-1,2,3,4,4a,5,6,6a,6b,7,8,8a,9,14,14a,14b,15,16b-octadecahydrochryseno[1,2-g]quinazoline-4a-carboxylic acid]", "ROR binding (%)": "++ (‘++’ corresponds to 50 to 70% binding of the compounds of present invention)"}, {"smiles": "Cc1nc(O)c2c(n1)C(C)(C)[C@@H]1CC[C@]3(C)[C@H](CC=C4[C@@H]5[C@@H](C)[C@H](C)CC[C@]5(C(=O)O)CC[C@]43C)[C@@]1(C)C2", "note": "[Example 31, (1S,2R,4aS,6aS,6bR,8aR,14aR,14bR,16bS)-13-hydroxy-1,2,6a,6b,9,9,11,14a-octamethyl-1,2,3,4,4a,5,6,6a,6b,7,8,8a,9,14,14a,14b,15,16b-octadecahydrochryseno[1,2-g]quinazoline-4a-carboxylic acid]", "ROR binding (%)": "++ (‘++’ corresponds to 50 to 70% binding of the compounds of present invention)"}, {"smiles": "Cc1nc(N(C)C)c2c(n1)C(C)(C)[C@@H]1CC[C@]3(C)[C@H](CC=C4[C@@H]5[C@@H](C)[C@H](C)CC[C@]5(C(=O)O)CC[C@]43C)[C@@]1(C)C2", "note": "[Example 38, (1S,2R,4aS,6aS,6bR,8aR,14aR,14bR,16bS)-13-(dimethylamino)-1,2,6a,6b,9,9,11,14a-octamethyl-1,2,3,4,4a,5,6,6a,6b,7,8,8a,9,14,14a,14b,15,16b-octadecahydrochryseno[1,2-g]quinazoline-4a-carboxylic acid]", "ROR binding (%)": "++ (‘++’ corresponds to 50 to 70% binding of the compounds of present invention)"}, {"smiles": "Cc1nc(N2CCCC2)c2c(n1)C(C)(C)[C@@H]1CC[C@]3(C)[C@H](CC=C4[C@@H]5[C@@H](C)[C@H](C)CC[C@]5(C(=O)O)CC[C@]43C)[C@@]1(C)C2", "note": "[Example 45, (1S,2R,4aS,6aS,6bR,8aR,14aR,14bR,16bS)-1,2,6a,6b,9,9,11,14a-octamethyl-13-(pyrrolidin-1-yl)-1,2,3,4,4a,5,6,6a,6b,7,8,8a,9,14,14a,14b,15,16b-octadecahydrochryseno[1,2-g]quinazoline-4a-carboxylic acid]", "ROR binding (%)": "++ (‘++’ corresponds to 50 to 70% binding of the compounds of present invention)"}, {"smiles": "Cc1nc(N2CCOCC2)c2c(n1)C(C)(C)[C@@H]1CC[C@]3(C)[C@H](CC=C4[C@@H]5[C@@H](C)[C@H](C)CC[C@]5(C(=O)O)CC[C@]43C)[C@@]1(C)C2", "note": "[Example 55, (1S,2R,4aS,6aS,6bR,8aR,14aR,14bR,16bS)-1,2,6a,6b,9,9,11,14a-octamethyl-13-morpholino-1,2,3,4,4a,5,6,6a,6b,7,8,8a,9,14,14a,14b,15,16b-octadecahydrochryseno[1,2-g]quinazoline-4a-carboxylic acid]", "ROR binding (%)": "++ (‘++’ corresponds to 50 to 70% binding of the compounds of present invention)"}, {"smiles": "Cc1ncc2c(n1)C(C)(C)[C@@H]1CC[C@]3(C)[C@H](CC=C4[C@@H]5[C@@H](C)[C@H](C)CC[C@]5(C(=O)O)CC[C@]43C)[C@@]1(C)C2", "note": "[Example 59, (1S,2R,4aS,6aS,6bR,8aR,14aR,14bR,16bS)-1,2,6a,6b,9,9,11,14a-octamethyl-1,2,3,4,4a,5,6,6a,6b,7,8,8a,9,14,14a,14b,15,16b-octadecahydrochryseno[1,2-g]quinazoline-4a-carboxylic acid]", "ROR binding (%)": "+++ (‘+++’ corresponds to more than 80% binding of the compounds of present invention)"}, {"smiles": "CCS(=O)(=O)c1ncc2c(n1)C(C)(C)[C@@H]1CC[C@]3(C)[C@H](CC=C4C5[C@@H](C)[C@H](C)CC[C@]5(C(=O)O)CC[C@]43C)[C@@]1(C)C2", "note": "(stereo partly drawn) [Example 78, (1S,2R,4aS,6aS,6bR,8aR,14aR,14bR)-11-(ethylsulfonyl)-1,2,6a,6b,9,9,14a-heptamethyl-1,2,3,4,4a,5,6,6a,6b,7,8,8a,9,14,14a,14b,15,16b-octadecahydrochryseno[1,2-g]quinazoline-4a-carboxylic acid]", "ROR binding (%)": "+++ (‘+++’ corresponds to more than 80% binding of the compounds of present invention)"}, {"smiles": "C[C@H]1[C@H](C)CC[C@]2(C(=O)O)CC[C@]3(C)C(=CC[C@@H]4[C@@]5(C)Cc6cnc(S(C)(=O)=O)nc6C(C)(C)[C@@H]5CC[C@]43C)[C@H]12", "note": "[Example 81, (1S,2R,4aS,6aS,6bR,8aR,14aR,14bR,16bS)-1,2,6a,6b,9,9,14a-heptamethyl-11-(methylsulfonyl)-1,2,3,4,4a,5,6,6a,6b,7,8,8a,9,14,14a,14b,15,16b-octadecahydrochryseno [1,2-g]quinazoline-4a-carboxylic acid]", "ROR binding (%)": "+++ (‘+++’ corresponds to more than 80% binding of the compounds of present invention)"}, {"smiles": "C[C@H]1[C@H](C)CC[C@]2(C(=O)O)CC[C@]3(C)C(=CC[C@@H]4[C@@]5(C)Cc6cccnc6C(C)(C)[C@@H]5CC[C@]43C)[C@H]12", "note": "[Example 84, (1S,2R,4aS,6aS,6bR,8aR,14aR,14bR,16bS)-1,2,3,4,4a,5,6,6a,6b,7,8,8a,9,14,14a,14b,15,16b-octadecahydro-1,2,6a, 6b,9,9,14a-heptamethylchryseno[1,2-g]quinoline-4a-carboxylic acid]", "ROR binding (%)": "++ (‘++’ corresponds to 50 to 70% binding of the compounds of present invention)"}, {"smiles": "C[C@H]1[C@H](C)CC[C@]2(C(=O)O)CC[C@]3(C)C(=CC[C@@H]4[C@@]5(C)Cc6cc(C(N)=O)cnc6C(C)(C)[C@@H]5CC[C@]43C)[C@H]12", "note": "[Example 94, (1S,2R,4aS,6aS,6bR,8aR,14aR,14bR,16bS)-12-carbamoyl-1,2,3,4,4a,5,6,6a,6b,7,8,8a,9,14,14a,14b,15,16b-octadecahydro-1,2,6a,6b,9,9,14a-heptamethylchryseno[1,2-g]quinoline-4a-carboxylic acid]", "ROR binding (%)": "++ (‘++’ corresponds to 50 to 70% binding of the compounds of present invention)"}]}]}
